ChEMBL document CHEMBL3259698, “Reductions in log P improved protein binding and clearance predictions enabling the prospective design of cannabinoid receptor (CB1) antagonists with desired pharmacokinetic properties” (J Med Chem, 2013)
Values after ≈ are worked out from the molar mass of the structure shown.

What was measured:
[1] = Terminal half life in Sprague-Dawley rat at 3 mg/kg, iv; type: ADME, organism-based; parameters: dose 3 mg/kg, route intravenous; conditions: in vivo, read-out: beta t1/2 (converted)
Cannabinoid receptor 1 = Cannabinoid receptor 1 (Homo sapiens, UniProt P21554); assay: Binding affinity to human CB1 receptor expressed in CHO cells by radioligand displacement based scintillation counting analysis; type: cell-based
[2] = Clearance in Sprague-Dawley rat at 3 mg/kg, iv; conditions: in vivo
Rattus norvegicus [3] = assay: Reduction in food intake in nonfasted po dosed Sprague-Dawley rat measured for 20 hrs; type: functional; conditions: read-out: MED
[4] = Lipophilicity, log P of the compound by HPLC analysis; type: physicochemical
Liver microsome = assay: Clearance in rat liver microsomes at 1 to 3 uM after 20 mins by LC/MS/MS analysis
[5] = Aqueous solubility of the compound; type: physicochemical; conditions: buffer
[6] = Fraction unbound in rat plasma at 10 uM by equilibrium dialysis method; type: ADME, cell-free
Rattus norvegicus [7] = assay: Reduction in food intake in nonfasted po dosed Sprague-Dawley rat measured for 8 hrs; type: functional; conditions: read-out: MED
Cytochrome P450 2C9 = Cytochrome P450 2C9 (Homo sapiens, UniProt P11712); assay: Inhibition of human recombinant CYP2C9; type: ADME
Cytochrome P450 2C19 = Cytochrome P450 2C19 (Homo sapiens, UniProt P33261); assay: Inhibition of human recombinant CYP2C19; type: ADME
Rattus norvegicus [8] = assay: Reduction in food intake in nonfasted Sprague-Dawley rat at 3 mg/kg, po measured for 8 hrs; type: functional; parameters: scale not given: the % may be the effect or the level left
Cytochrome P450 3A4 [9] = target: T1, Cytochrome P450 3A4 (Homo sapiens, UniProt P08684); assay: Inhibition of human recombinant CYP3A4
[10] = Elimination half life in iv dosed cynomolgus monkey; type: ADME, organism-based, Macaca fascicularis; conditions: in vivo, read-out: beta t1/2 (converted)
Rattus norvegicus [11] = assay: Antiobesity activity in rat assessed as reduction in body weight at 10 mg/kg, qd after 4 days; type: functional; parameters: scale not given: the % may be the effect or the level left
[12] = Cmax in rat at 10 mg/kg, qd; type: ADME, organism-based; parameters: dose 10 mg/kg; conditions: in vivo
[13] = Oral bioavailability in cynomolgus monkey; type: ADME, organism-based, Macaca fascicularis; conditions: in vivo
Rattus norvegicus [14] = assay: Antiobesity activity in rat assessed as reduction in food intake at 10 mg/kg; type: functional; parameters: scale not given: the % may be the effect or the level left
Cytochrome P450 3A4 [15] = target: T1, Cytochrome P450 3A4; assay: Inhibition of CYP3A4 in human hepatocytes; type: ADME, cell-based, Hepatocyte
[16] = AUC (0 to 24 hrs) in rat at 10 mg/kg, qd; type: ADME, organism-based; parameters: time < 24 hr, dose 10 mg/kg; conditions: plasma
[17] = Oral bioavailability in dog; type: ADME, organism-based, Canis lupus familiaris; conditions: in vivo
[18] = Elimination half life in iv dosed dog; type: ADME, organism-based, Canis lupus familiaris; conditions: in vivo, read-out: beta t1/2 (converted)
Rattus norvegicus [19] = assay: Reduction in food intake in nonfasted Sprague-Dawley rat at 10 mg/kg, po measured for 8 hrs; type: functional; parameters: scale not given: the % may be the effect or the level left
[20] = Oral bioavailability in Sprague-Dawley rat; type: ADME, organism-based; conditions: in vivo
Cytochrome P450 3A4 [21] = target: T1, Cytochrome P450 3A4; assay: Inhibition of CYP3A4 in human liver microsomes; type: ADME

Sequence of Cytochrome P450 2C9 (P11712 whole entry): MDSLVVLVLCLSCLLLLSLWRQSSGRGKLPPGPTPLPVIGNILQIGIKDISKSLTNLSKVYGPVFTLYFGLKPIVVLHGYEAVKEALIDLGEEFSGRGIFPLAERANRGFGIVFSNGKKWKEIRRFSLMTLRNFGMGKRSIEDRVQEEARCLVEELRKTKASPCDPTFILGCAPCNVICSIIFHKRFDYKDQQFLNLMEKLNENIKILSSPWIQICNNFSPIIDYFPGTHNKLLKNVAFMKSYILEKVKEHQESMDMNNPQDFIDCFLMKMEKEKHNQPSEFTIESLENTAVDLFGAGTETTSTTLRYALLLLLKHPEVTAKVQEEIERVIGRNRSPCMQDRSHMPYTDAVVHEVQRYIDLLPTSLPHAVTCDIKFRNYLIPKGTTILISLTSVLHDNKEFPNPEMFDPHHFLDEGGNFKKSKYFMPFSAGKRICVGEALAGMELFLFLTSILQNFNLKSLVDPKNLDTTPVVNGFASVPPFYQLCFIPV
T1 sequence (P08684 whole entry): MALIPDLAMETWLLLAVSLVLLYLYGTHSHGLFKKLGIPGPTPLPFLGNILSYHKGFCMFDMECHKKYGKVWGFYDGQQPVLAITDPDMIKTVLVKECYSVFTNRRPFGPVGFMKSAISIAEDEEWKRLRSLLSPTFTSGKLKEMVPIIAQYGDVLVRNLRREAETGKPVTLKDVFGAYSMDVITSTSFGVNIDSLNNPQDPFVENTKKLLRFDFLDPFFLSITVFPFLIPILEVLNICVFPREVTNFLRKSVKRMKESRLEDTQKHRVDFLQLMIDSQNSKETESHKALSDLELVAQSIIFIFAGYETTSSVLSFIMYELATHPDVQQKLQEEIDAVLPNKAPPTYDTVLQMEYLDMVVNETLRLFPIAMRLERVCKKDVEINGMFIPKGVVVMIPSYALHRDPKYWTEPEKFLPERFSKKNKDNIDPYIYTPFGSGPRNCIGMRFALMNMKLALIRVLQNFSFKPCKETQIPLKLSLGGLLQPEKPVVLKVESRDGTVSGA
Sequence of Cannabinoid receptor 1 (P21554 whole entry): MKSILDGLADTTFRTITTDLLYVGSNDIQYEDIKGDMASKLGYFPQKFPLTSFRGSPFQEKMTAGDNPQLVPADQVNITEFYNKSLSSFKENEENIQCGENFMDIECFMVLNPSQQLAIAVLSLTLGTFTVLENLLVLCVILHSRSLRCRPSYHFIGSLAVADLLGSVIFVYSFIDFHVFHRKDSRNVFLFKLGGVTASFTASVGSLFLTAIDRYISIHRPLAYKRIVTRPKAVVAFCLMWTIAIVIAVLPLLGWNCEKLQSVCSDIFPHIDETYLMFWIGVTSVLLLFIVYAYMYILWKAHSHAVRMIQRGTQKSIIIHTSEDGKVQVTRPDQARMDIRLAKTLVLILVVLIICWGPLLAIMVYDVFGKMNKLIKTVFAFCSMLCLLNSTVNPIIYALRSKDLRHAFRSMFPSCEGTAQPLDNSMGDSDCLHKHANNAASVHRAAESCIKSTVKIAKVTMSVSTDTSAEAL
Sequence of Cytochrome P450 2C19 (P33261 whole entry): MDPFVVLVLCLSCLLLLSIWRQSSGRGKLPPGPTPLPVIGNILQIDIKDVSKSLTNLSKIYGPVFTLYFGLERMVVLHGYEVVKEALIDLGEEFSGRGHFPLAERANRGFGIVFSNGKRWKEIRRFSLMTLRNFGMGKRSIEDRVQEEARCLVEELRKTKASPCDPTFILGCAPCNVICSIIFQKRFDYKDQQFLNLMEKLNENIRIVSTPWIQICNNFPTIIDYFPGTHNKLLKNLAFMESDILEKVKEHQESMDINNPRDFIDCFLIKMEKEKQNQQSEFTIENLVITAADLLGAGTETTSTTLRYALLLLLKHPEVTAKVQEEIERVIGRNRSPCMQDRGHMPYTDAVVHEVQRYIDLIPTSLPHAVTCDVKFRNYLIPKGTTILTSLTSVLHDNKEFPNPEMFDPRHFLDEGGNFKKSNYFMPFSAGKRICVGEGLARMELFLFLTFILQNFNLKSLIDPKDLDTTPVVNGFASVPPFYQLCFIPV

SMILES | half-life [1] [h] | Ki (Cannabinoid receptor 1) [nM] | logP [4] | IC50 (Cytochrome P450 2C9) [nM] | IC50 (Cytochrome P450 2C19) [nM] | other results
O=c1n(Cc2ccc(C(F)(F)F)nc2)nc2c(-c3ccncc3)c(-c3ccc(Cl)cc3)cnn12 | 15 | 12 | 3.2 |  |  | clearance [2]: 0.4 mL/min/kg; minimal effective dose (Rattus norvegicus [3]): 0.3 mg/kg
CCCn1nc2c(-c3ccc(Cl)cc3)c(-c3ccc(C#N)cc3)c(=O)n(Cc3ccc(C(F)(F)F)nc3C)n2c1=O | 29 | 1.7 | 5.1 |  |  | CLH (Liver microsome): 0.17 nmol/min/mg; clearance [2]: 29 mL/min/kg
Cc1nn2c(=O)n(Cc3ccc(C(F)(F)F)nc3)nc2c(-c2ccncc2)c1-c1ccc(Cl)cc1 |  | 210 | 3.3 |  |  | 
COc1nn2c(=O)n(Cc3ccc(C(F)(F)F)nc3)nc2c(-c2ccncc2)c1-c1ccc(Cl)cc1 | 17 | 10 | 3.7 |  |  | minimal effective dose (Rattus norvegicus [3]): 3 mg/kg
O=c1[nH]n2c(=O)n(Cc3ccc(C(F)(F)F)nc3)nc2c(-c2ccncc2)c1-c1ccc(Cl)cc1 |  | 4000 | 2.5 |  |  | 
Cn1c(=O)c(-c2ccc(Cl)cc2)c(-c2ccncc2)c2nn(Cc3ccc(C(F)(F)F)nc3)c(=O)n21 | 35 | 18 | 3.5 |  |  | solubility [5]: 1 µg/mL (≈ 1.95 µM); minimal effective dose (Rattus norvegicus [3]): 1 mg/kg
N#Cc1ccc(Cn2nc3c(-c4ccncc4)c(-c4ccc(Cl)cc4)c(=O)n(Cc4ccc(C#N)cc4)n3c2=O)cc1 |  | 4.2 |  |  |  | 
Cn1nc2c(-c3ccncc3)c(-c3ccc(Cl)cc3)c(=O)n(Cc3ccc(C#N)cc3)n2c1=O |  | 214 |  |  |  | 
Cn1nc2c(-c3ccc(Cl)cc3)c(-c3ccncc3)c(=O)n(Cc3ccc(C#N)cc3)n2c1=O | 3.5 | 29 | 3 |  |  | fraction unbound at 10 µM [6]: 0.05
Cn1nc2c(-c3ccc(Cl)cc3)c(-c3ccncc3)c(=O)n(Cc3ccc(C(F)(F)F)nc3)n2c1=O | 6 | 28 |  | 1900 | 4300 | minimal effective dose (Rattus norvegicus [7]): 3 mg/kg; solubility [5]: 40 µg/mL (≈ 78 µM); Activity (Rattus norvegicus [8]): 21%
Cc1nc(C(F)(F)F)ccc1Cn1c(=O)c(-c2ccncc2)c(-c2ccc(Cl)cc2)c2nn(C)c(=O)n21 | 3.3 | 9 |  | 2900 | 700 | minimal effective dose (Rattus norvegicus [7]): 3 mg/kg; IC50 (Cytochrome P450 3A4 [9]): 6800 nM; clearance [2]: 6.3 mL/min/kg; Activity (Rattus norvegicus [8]): 33%
CCn1nc2c(-c3ccc(Cl)cc3)c(-c3ccncc3)c(=O)n(Cc3ccc(C(F)(F)F)nc3)n2c1=O | 2.4 | 15 | 4 | 4900 | 11000 | IC50 (Cytochrome P450 3A4 [9]): 18000 nM; clearance [2]: 37 mL/min/kg
CCn1nc2c(-c3ccc(Cl)cc3)c(-c3ccncc3)c(=O)n(Cc3ccc(C(F)(F)F)nc3C)n2c1=O | 5 | 4.5 | 3.9 | 4200 | 2600 | half-life [10]: 6 h; Activity (Rattus norvegicus [11]): 4%; minimal effective dose (Rattus norvegicus [7]): 10 mg/kg; Cmax [12]: 4 µM; bioavailability [13]: 15%; Activity (Rattus norvegicus [14]): 43%; IC50 (Cytochrome P450 3A4 [15]): 3000 nM; AUC at 24 h [16]: 48 µM·h; bioavailability [17]: 40%; half-life [18]: 38 h; Activity (Rattus norvegicus [19]): 51%; bioavailability [20]: 50%; IC50 (Cytochrome P450 3A4 [21]): 9100 nM
CCn1nc2c(-c3ccc(Cl)cc3)c(-c3ccncc3C)c(=O)n(Cc3ccc(C(F)(F)F)nc3C)n2c1=O |  | 8.4 | 4.2 | 5000 | 32000 | IC50 (Cytochrome P450 3A4 [9]): > 40000 nM
